We go through seven compounds from patent US6355784B1, “Methods and compositions for the manufacture of halogenated anthracyclines with increased antitumor activity, other anthracyclines, halogenated sugars, and glycosyl donors” (priority 1998, dated 2002).

The test system of series [1] is MCF-7 cells. Put plainly: MTT cytotoxicity assay, wild-type MCF-7 cells. The note with it: for ID50 MCF-7: sensitive human breast carcinoma MCF-7 cells, MTT, 72 hours; for cytotoxicity in sensitive MCF-7 cells, in words: compared with DOX. In general terms: Tetrazolium assays rely on reduction of a dye to a coloured formazan, in cell work by metabolically active cells.

Series [2] deals with MCF-7/DOX (MDR) cells. As to the kind of experiment: MTT cytotoxicity assay, MDR MCF-7/DOX cells. The note with it: for ID50 MCF-7/DOX (MDR): MDR-overexpressing MCF-7/DOX cells, MTT, 72 hours; for RI (resistance index) MCF-7/DOX vs MCF-7: ratio of ID50 in MCF-7 and MCF-7/DOX cells.
Series [3] concerns KB cells. As to the kind of experiment: MTT cytotoxicity assay, sensitive KB cells. The note with it: sensitive human carcinoma KB cells, 72 hours.
Series [4] concerns KBVI (MDR) cells. As to the kind of experiment: MTT cytotoxicity assay, multi-drug-resistant KBV1 cells. The note with it: for ID50 KBVI (MDR): multi-drug-resistant KBV1 cells overexpressing MDR1 (P-gp), MTT, 72 hours; for RI (resistance index) KBVI vs KB: ratio of ID50 in KB and KBVI cells.
In series [5] the test system is MCF-7/VP-16 (MRP) cells. The note with it: for ID50 MCF-7/VP-16 (MRP): MRP-overexpressing MCF-7/VP-16 cells, MTT, 72 hours; for RI (resistance index) MCF-7/VP-16 vs MCF-7: ratio of ID50 in MCF-7 and MCF-7/VP-16 cells.
Series [6] relates to amyloid enhancing factor. The note with it: preincubation of the amyloid enhancing factor with IDOX; cited from earlier work.
The test system of series [7] is amyloidosis. The note with it: as a result of amyloid resorption; cited from earlier work.
Series [8] relates to amyloid fibrils. The note with it: cited from earlier work.
Series [9] deals with prion disease. The note with it: cited from earlier work.

≈ marks a conversion by molar mass, not a printed value. Where only a bound is given, the exact number is not on record here.

Take 6′-fluoro-doxorubicin [WP 743]: in series [1], the “ID50 MCF-7” value came out at 0.2 µg/mL. Moreover, in series [2], the “ID50 MCF-7/DOX (MDR)” value is over 10 µg/mL and the “RI (resistance index) MCF-7/DOX vs MCF-7” value stood at 50. In addition, the “ID50 KB” value in series [3] is 0.64 µg/mL. In addition, in [4], the “ID50 KBVI (MDR)” value was 41 µg/mL and the “RI (resistance index) KBVI vs KB” value is listed as 64. Besides, in series [5], the “ID50 MCF-7/VP-16 (MRP)” value came out at 2.3 µg/mL and the “RI (resistance index) MCF-7/VP-16 vs MCF-7” value was 11.5.
For `COc1cccc2c1C(=O)c1c(O)c3c(c(O)c1C2=O)C[C@@](O)(C(=O)CO)C[C@@H]3O[C@H]1C[C@H](N)[C@H](O)[C@H](C)O1` [DOX, doxorubicin, reference compound], the “ID50 MCF-7” value in [1] came to 0.38 µg/mL (≈ 0.699 µM). The “RI fold higher than that of WP 715 and WP 722” value in series [2] (MCF-7/DOX cells) is reported as 180 fold. In series [2], the “ID50 MCF-7/DOX (MDR)” value was over 100 µg/mL and the “RI (resistance index) MCF-7/DOX vs MCF-7” value is given as over 263. The “ID50 KB” value in series [3] is 4.1 ± 0.3 µg/mL (≈ 7.54 µM). Moreover, in series [4], the “cytotoxicity against MDR KB-V1 cells, in words” value is “inactive” and the “ID50 KBVI (MDR)” value was over 100 µg/mL. In series [5], the “ID50 MCF-7/VP-16 (MRP)” value turned out to be 6.2 µg/mL (≈ 11.4 µM) and the “RI (resistance index) MCF-7/VP-16 vs MCF-7” value was 16.3.
As to `COc1cccc2c1C(=O)c1c(O)c3c(c(O)c1C2=O)CC(O)(C(=O)CO)CC3OC1CC(N)C(I)C(C)O1` (centres unmarked) [IDOX, 4′-iodo-4′-deoxydoxorubicin], in [6], the “formation of amyloid deposits” value is reported as “significantly reduces formation of amyloid deposits”. Besides, the “clinical outcome in patients with amyloidosis” value in series [7] is “substantial clinical improvement”. Further, in series [8], the “binding to amyloid fibrils” value is “binds strongly”. For the same compound, in [9] (Syrian-hamster prion model), the onset of disease result is “delayed onset of the disease” and the survival time entry is reported as “prolonged”. In series [9] (neuropathological examination, versus untreated controls), the “accumulation of amyloid fibrils in brain” value is “delay in the accumulation of amyloid fibrils”.
For `COc1cccc2c1C(=O)c1c(O)c3c(c(O)c1C2=O)CC(O)(C(=O)CO)CC3OC1CC(O)C(F)C(C)O1` (centres unmarked) [WP 563, 3′-Deamino-4′-fluoro-3′-hydroxydoxorubicin], the “ID50 KBVI (MDR)” value in series [4] came to 2.74 ± 2.9 µg/mL (≈ 5.01 µM).
In the case of `COc1cccc2c1C(=O)c1c(O)c3c(c(O)c1C2=O)CC(O)(C(=O)CO)CC3OC1CC(O)C(F)(F)C(C)O1` (centres unmarked) [WP 600, 3′-deamino-4′-deoxy-4′,4′-difluoro-3′-hydroxy-doxorubicin], the “ID50 KBVI (MDR)” value in [4] amounted to 16.9 ± 2.3 µg/mL (≈ 29.9 µM).
Turning to `COc1cccc2c1C(=O)c1c(O)c3c(c(O)c1C2=O)CC(O)(C(C)=O)CC3OC1CC(N)C(F)C(C)O1.Cl` (centres unmarked) [WP 715, 4′-deoxy-4′-fluoro-daunorubicin hydrochloride], in series [1], the “cytotoxicity in sensitive MCF-7 cells, in words” value is “less potent than DOX” and the “ID50 MCF-7” value amounted to 1.5 ± 1.4 µg/mL. For the same compound, in [2], the “cytotoxicity against resistant MCF-7/DOX cells, in words” value is given as “highly cytotoxic against resistant cells” and the “ID50 MCF-7/DOX (MDR)” value turned out to be 2.2 µg/mL. For the same compound, in series [3], the “ID50 KB” value was found to be 3.15 ± 0.9 µg/mL. Further, in [4], the “ID50 KBVI (MDR)” value came out at 4.1 ± 0.6 µg/mL.
On to `COc1cccc2c1C(=O)c1c(O)c3c(c(O)c1C2=O)CC(O)(C(=O)CO)CC3OC1CC(N)C(F)C(C)O1` (centres unmarked) [WP 722, 4′-deoxy-4′-fluoro-doxorubicin], for which, in [1], the “cytotoxicity in sensitive MCF-7 cells, in words” value is given as “less potent than DOX” and the “ID50 MCF-7” value was found to be 1.3 ± 1.6 µg/mL (≈ 2.38 µM). In series [2], the “cytotoxicity against resistant MCF-7/DOX cells, in words” value is “highly cytotoxic against resistant cells” and the “ID50 MCF-7/DOX (MDR)” value was 1.9 µg/mL (≈ 3.48 µM). Besides, the “ID50 KB” value in [3] turned out to be 2.1 ± 2.5 µg/mL (≈ 3.85 µM). In series [4], the “ID50 KBVI (MDR)” value was 3.3 ± 0.4 µg/mL (≈ 6.05 µM) and the “RI (resistance index) KBVI vs KB” value is given as 1.57. For the same compound, in [5], the “ID50 MCF-7/VP-16 (MRP)” value is 4.2 ± 5.0 µg/mL (≈ 7.7 µM) and the “RI (resistance index) MCF-7/VP-16 vs MCF-7” value is listed as 3.23. Moreover, in series [5] (compared with DOX), the “cytotoxicity in MCF-7/VP-16 cells, in words” value is given as “significant increase in cytotoxicity”.
